Reference: PubChem BioAssay AID248 (DTP/NCI, 2004)
Where “and” joins values, the source holds several entries; their conditions need not be identical. Identical values can stand only once. Inconclusive results and toxic doses are left out.

Test system: L1210 leukemia ip in BDF1 mice, survival T/C
Assay: NCI In Vivo Anticancer Drug Screen. Data for tumor model L1210 Leukemia (intraperitoneal) in B6D2F1 (BDF1) mice
Details: endpoint: mean survival time, higher = longer survival
Method in brief: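 Transplanted-tumor mice were given test agent; controls received vehicle only. Survival readings from the two groups were divided (treated over control).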

[1] = dose: 100.0 mg/kg/injection, schedule: Q01DX009 (ip), vehicle: Klucel (hydroxypropylcellulose) (HPC)
[2] = dose: 200.0 mg/kg/injection, schedule: Q01DX009 (ip), vehicle: Klucel (hydroxypropylcellulose) (HPC)
[3] = dose: 100.0 mg/kg/injection, schedule: Q01DX Z (ip), vehicle: saline
[4] = dose: 100.0 mg/kg/injection, schedule: Q01DX001 (ip), vehicle: saline
[5] = dose: 200.0 mg/kg/injection, schedule: Q01DX001 (ip), vehicle: saline
[6] = dose: 400.0 mg/kg/injection, schedule: Q01DX001 (ip), vehicle: saline
[7] = dose: 75.0 mg/kg/injection, schedule: Q01DX001 (ip), vehicle: saline
[8] = dose: 150.0 mg/kg/injection, schedule: Q01DX001 (ip), vehicle: saline
[9] = dose: 300.0 mg/kg/injection, schedule: Q01DX001 (ip), vehicle: saline

## O=C(c1ccc([N+](=O)[O-])cc1)N1CC1Cc1ccccc1 (stereo not drawn)
dose: 100.0 mg/kg/injection, schedule: Q01DX001 (ip), vehicle: Klucel (hydroxypropylcellulose) (HPC)
  T/C: 89 % of control
dose: 200.0 mg/kg/injection, schedule: Q01DX001 (ip), vehicle: Klucel (hydroxypropylcellulose) (HPC)
  T/C: 89 % of control

## Nc1ncc([N+](=O)[O-])cn1
[1]
  T/C: 107 % of control
dose: 100.0 mg/kg/injection, schedule: Q04DX003 (ip), vehicle: Klucel (hydroxypropylcellulose) (HPC)
  T/C: 103 % of control
[2]
  T/C: 91 % of control
dose: 200.0 mg/kg/injection, schedule: Q04DX003 (ip), vehicle: Klucel (hydroxypropylcellulose) (HPC)
  T/C: 97 % of control
dose: 400.0 mg/kg/injection, schedule: Q01DX009 (ip), vehicle: Klucel (hydroxypropylcellulose) (HPC)
  T/C: 100 % of control
dose: 400.0 mg/kg/injection, schedule: Q04DX003 (ip), vehicle: Klucel (hydroxypropylcellulose) (HPC)
  T/C: 94 % of control

## NC(N)=NCCCC(N)C(=O)NCCCCCCNC(=O)C(N)CCCN=C(N)N (stereo not drawn)
dose: 10.0 mg/kg/injection, schedule: Q01DX Z (ip), vehicle: saline
  T/C: 97 % of control
dose: 30.0 mg/kg/injection, schedule: Q01DX Z (ip), vehicle: saline
  T/C: 108 % of control
[3]
  T/C: 90 % of control

## CCCCCc1c(CCCC)c(=O)[nH]c2ccccc12
[4]
  T/C: 97 % of control
[5]
  T/C: 98 % of control
[6]
  T/C: 90 % of control

## CN1c2cccc[c]2[Sn]([c]2ccccc2)([c]2ccccc2)[c]2ccccc21
dose: 100.0 mg/kg/injection, schedule: Q01DX001 (ip), vehicle: steriod suspending solution
  T/C: 94 % of control
dose: 200.0 mg/kg/injection, schedule: Q01DX001 (ip), vehicle: steriod suspending solution
  T/C: 94 % of control
dose: 400.0 mg/kg/injection, schedule: Q01DX001 (ip), vehicle: steriod suspending solution
  T/C: 100 % of control

## CCC(C(C)=O)C(C)=O.CCC(C(C)=O)C(C)=O.[Cu]
dose: 6.0 mg/kg/injection, schedule: Q01DX001 (ip), vehicle: saline
  T/C: 95 % of control
dose: 12.0 mg/kg/injection, schedule: Q01DX001 (ip), vehicle: saline
  T/C: 101 % of control
dose: 25.0 mg/kg/injection, schedule: Q01DX001 (ip), vehicle: saline
  T/C: 112 % of control

## CC1S(=O)(=O)CC(NC(=O)N(CCCl)N=O)CS1(=O)=O (stereo not drawn)
dose: 3.5 mg/kg/injection, schedule: Q01DX001 (ip), vehicle: saline with Tween-80
  T/C: 159 % of control
dose: 5.3 mg/kg/injection, schedule: Q01DX001 (ip), vehicle: saline with Tween-80
  T/C: 172 % of control and 208 % of control
dose: 8.0 mg/kg/injection, schedule: Q01DX001 (ip), vehicle: saline with Tween-80
  T/C: 278 % of control and 309 % of control
dose: 12.0 mg/kg/injection, schedule: Q01DX001 (ip), vehicle: saline with Tween-80
  T/C: 357 % of control [middle of 4 runs]
dose: 18.0 mg/kg/injection, schedule: Q01DX001 (ip), vehicle: saline with Tween-80
  T/C: 324 % of control and 421 % of control
dose: 26.0 mg/kg/injection, schedule: Q01DX001 (ip), vehicle: saline with Tween-80
  T/C: 444 % of control and 458 % of control
dose: 40.0 mg/kg/injection, schedule: Q01DX001 (ip), vehicle: saline with Tween-80
  T/C: 516 % of control and 442 % of control
dose: 60.0 mg/kg/injection, schedule: Q01DX001 (ip), vehicle: saline with Tween-80
  T/C: 421 % of control and 156 % of control
dose: 90.0 mg/kg/injection, schedule: Q01DX001 (ip), vehicle: saline with Tween-80
  T/C: 252 % of control and 258 % of control
dose: 135.0 mg/kg/injection, schedule: Q01DX001 (ip), vehicle: saline with Tween-80
  T/C: 116 % of control

## CC(=O)c1sccc1C
dose: 6.25 mg/kg/injection, schedule: Q01DX009 (ip), vehicle: Klucel (hydroxypropylcellulose) (HPC)
  T/C: 93 % of control
dose: 12.5 mg/kg/injection, schedule: Q01DX009 (ip), vehicle: Klucel (hydroxypropylcellulose) (HPC)
  T/C: 92 % of control
dose: 12.5 mg/kg/injection, schedule: Q04DX003 (ip), vehicle: Klucel (hydroxypropylcellulose) (HPC)
  T/C: 101 % of control
dose: 25.0 mg/kg/injection, schedule: Q01DX009 (ip), vehicle: Klucel (hydroxypropylcellulose) (HPC)
  T/C: 90 % of control
dose: 25.0 mg/kg/injection, schedule: Q04DX003 (ip), vehicle: Klucel (hydroxypropylcellulose) (HPC)
  T/C: 92 % of control

## COc1ccc(OC)c2c1CCCC2=O
dose: 50.0 mg/kg/injection, schedule: Q01DX001 (ip), vehicle: saline
  T/C: 96 % of control
[4]
  T/C: 99 % of control
[5]
  T/C: 91 % of control
[6]
  T/C: 96 % of control

## CC(C)Oc1ccc(Nc2ccccc2)cc1
dose: 50.0 mg/kg/injection, schedule: Q01DX009 (ip), vehicle: Klucel (hydroxypropylcellulose) (HPC)
  T/C: 100 % of control
[4]
  T/C: 96 % of control
[1]
  T/C: 99 % of control
[5]
  T/C: 107 % of control
[2]
  T/C: 100 % of control
[6]
  T/C: 88 % of control

## CN(C)CCCNc1nc(-c2cccc(C(Cl)(Cl)Cl)c2)nc(C(Cl)(Cl)Cl)n1
[7]
  T/C: 95 % of control
[8]
  T/C: 101 % of control
[9]
  T/C: 91 % of control

## CC(=O)n1c2ccccc2c2nc3cnccc3nc21
dose: 16.0 mg/kg/injection, schedule: Q01DX005 (ip), vehicle: saline
  T/C: 97 % of control
dose: 32.0 mg/kg/injection, schedule: Q01DX005 (ip), vehicle: saline
  T/C: 97 % of control
dose: 64.0 mg/kg/injection, schedule: Q01DX005 (ip), vehicle: saline
  T/C: 107 % of control

## CCCC(=O)Nc1ccc(C(=O)OCC)cc1
dose: 100.0 mg/kg/injection, schedule: Q04DX002 (ip), vehicle: saline
  T/C: 93 % of control
dose: 200.0 mg/kg/injection, schedule: Q04DX002 (ip), vehicle: saline
  T/C: 100 % of control
dose: 400.0 mg/kg/injection, schedule: Q04DX002 (ip), vehicle: saline
  T/C: 107 % of control

## CCC(=O)c1cc(O)ccc1O
dose: 100.0 mg/kg/injection, schedule: Q04DX003 (ip), vehicle: other
  T/C: 93 % of control
dose: 200.0 mg/kg/injection, schedule: Q04DX003 (ip), vehicle: other
  T/C: 98 % of control

## O=C(O)CC(O)c1ccccc1 (stereo not drawn)
[7]
  T/C: 109 % of control
[8]
  T/C: 93 % of control
[9]
  T/C: 112 % of control

## CCOc1ccc(Nc2cccc3ccccc23)cc1
dose: 100.0 mg/kg/injection, schedule: Q04DX002 (ip), vehicle: Klucel (hydroxypropylcellulose) (HPC)
  T/C: 94 % of control
dose: 200.0 mg/kg/injection, schedule: Q04DX002 (ip), vehicle: Klucel (hydroxypropylcellulose) (HPC)
  T/C: 88 % of control
dose: 400.0 mg/kg/injection, schedule: Q04DX002 (ip), vehicle: Klucel (hydroxypropylcellulose) (HPC)
  T/C: 98 % of control

## N#Cc1nc2c(nc1C#N)-c1ccccc1/C2=C1/C(=O)Cc2ccccc21
dose: 25.0 mg/kg/injection, schedule: Q04DX002 (ip), vehicle: other
  T/C: 93 % of control and 90 % of control

## COC1OC2COC(c3ccccc3)OC2C(=O)C1OS(=O)(=O)c1ccc(C)cc1 (stereo not drawn)
dose: 200.0 mg/kg/injection, schedule: Q04DX003 (ip), vehicle: saline with Tween-80
  T/C: 89 % of control
dose: 400.0 mg/kg/injection, schedule: Q04DX003 (ip), vehicle: saline with Tween-80
  T/C: 86 % of control

## C1=COC(C2NCCCN2)CC1 (stereo not drawn)
[4]
  T/C: 102 % of control
[5]
  T/C: 111 % of control
[6]
  T/C: 106 % of control

## NC12CC3CC(C1)CC(F)(C3)C2
dose: 50.0 mg/kg/injection, schedule: Q01DX009 (ip), vehicle: saline
  T/C: 101 % of control
dose: 100.0 mg/kg/injection, schedule: Q01DX009 (ip), vehicle: saline
  T/C: 99 % of control
dose: 200.0 mg/kg/injection, schedule: Q01DX009 (ip), vehicle: saline
  T/C: 101 % of control
dose: 400.0 mg/kg/injection, schedule: Q01DX009 (ip), vehicle: saline
  T/C: 93 % of control

## CNC(=O)O/N=C/c1ccc([N+](=O)[O-])cc1
[7]
  T/C: 94 % of control
[8]
  T/C: 100 % of control

## N#CC(Cc1ccccc1)C(=O)O (stereo not drawn)
dose: 50.0 mg/kg/injection, schedule: Q01DX Z (ip), vehicle: saline
  T/C: 106 % of control
[3]
  T/C: 102 % of control
dose: 200.0 mg/kg/injection, schedule: Q01DX Z (ip), vehicle: saline
  T/C: 91 % of control

## COC(=O)C(Cc1[nH]c(N=Nc2ccc(Br)cc2)nc1N=Nc1ccc(Br)cc1)NC(=O)c1ccccc1 (stereo not drawn)
dose: 100.0 mg/kg/injection, schedule: Q01DX001 (ip), vehicle: saline with Tween-80
  T/C: 86 % of control
dose: 200.0 mg/kg/injection, schedule: Q01DX001 (ip), vehicle: saline with Tween-80
  T/C: 93 % of control
dose: 400.0 mg/kg/injection, schedule: Q01DX001 (ip), vehicle: saline with Tween-80
  T/C: 90 % of control

## O=[N+]([O-])c1ccc2nc(=S)[nH]n2c1
dose: 100.0 mg/kg/injection, schedule: Q01DX001 (ip), vehicle: acetone
  T/C: 97 % of control
dose: 200.0 mg/kg/injection, schedule: Q01DX001 (ip), vehicle: acetone
  T/C: 93 % of control
dose: 400.0 mg/kg/injection, schedule: Q01DX001 (ip), vehicle: acetone
  T/C: 98 % of control
